The subject of one assay is B. subtilis membrane. Description: DiSC3(5) depolarization assay, lariat ethers. It counts as cell-based, Bacillus subtilis. To be noted: for DiSC3(5) release: 2 μM, cation-free dextrose solution. Here is the method:
Dialkylated lariat ethers LEC6-LEC14 were then tested for their ability to depolarize a B. subtilis membrane using the fluorescent dye 3,3-dipropylthiadicarbocyanine (DiSC3(5)), which undergoes membrane voltage-dependent partitioning between the intracellular and the extracellular medium. FIGS. 23-31 show the time course of the DiSC3(5) fluorescence due to the activity of dialkylated lariat ethers with alkyl chains 6 to 14 carbons in length. The experiment was performed in a NMDG-MeSO3 solution (100 mM NMDG, 10 mM HEPES, pH adjusted to 7.4 with methanesulfonic acid). The events are: t1, addition of dye; t2, addition of B. subtilis; t3, addition of a 2 M KCl or a 2 M NMDG-Cl solution up to a final concentration of 60 mM; t4, addition of dialkylated lariat ether up to 2 μM. Control experiments were performed that were similar to the two previously described experiments, with the exception that additional NMDG-MeSO3 solution without cells was added at timepoint t2. The experiments were normalized relative to the final fluorescence intensity in the control experiments, as described below.
To conduct the experiments shown in FIGS. 23-31, a 2-mL liquid culture of B. subtilis cells was grown at 37° C. in LB media until OD600=0.600, and then collected by centrifugation at 2000 rpm during 3 min. The bacteria were washed once in NMDG-MeSO3 solution (100 mM NMDG, 10 mM HEPES, pH adjusted to 7.4 with methanesulfonic acid) or dextrose solution (200 mM dextrose, 10 mM Tris, pH adjusted to 7.4 with HCl) depending on the experiment. The centrifugation step was repeated and the bacteria were resuspended until OD600=1.0 in the same solution. The working dye solution was a 200 μM solution of DiSC3(5) (3,3′-dipropylthiadicarbocyanine iodide; Tokyo Chemical Industry) in DMSO. […] After 150 sec (timepoint t3, 250 sec) the fluorescence stabilized to a minimum intensity and 100 μL of 2M NMDG-Cl, 2M NaCl or 2 M KCl solution was added to reach a about 60 mM final concentration of the salt. […] Fluorescence intensity was recorded each second using a Horiba Fluoromax 4 spectrometer (excitation wavelength=640 nm; emission wavelength=670 nm). […] To normalize the fluorescence, experiments in the same conditions but without adding bacteria were performed, normalization was done by dividing the fluorescence by the final fluorescence level of these experiments.
Cell hyperpolarization (more negatively charged inside the cell) results in an uptake of the dye, while cell membrane depolarization (more positively charged inside the cell) results in a release of the dye. The accumulation of the dye in the interior of the cell can be detected by a decrease in fluorescence due to self-quenching, which enables the dye to be utilized as an indirect reporter of changes in cell membrane voltage. […]

Assay [1] can be described thus: Planar lipid bilayer ion channel recordings. The format is biochemical. As to the method: Experiments in planar lipid bilayers were performed via a Nanion Orbit-mini planar bilayer system. The planar membranes were formed by painting a 25 mg/mL solution of lipids in n-nonane over the four 50 μm apertures on the chip. The lipids used were asolectin from soybean (Sigma-Aldrich) or a 3:1 w/w mix of 1-palmitoyl-2-oleoyl-sn-glycero-3-phosphoethanolamine (POPE) and 1-palmitoyl-2-oleoyl-sn-glycero-3-phospho-(1′-rac-glycerol) (POPG) (Avanti Polar lipids). The solutions tested were KCl solution (150 mM KCl, 10 mM HEPES, pH adjusted to 7.4 with KOH), NaCl solution (150 mM NaCl, 10 mM HEPES, pH adjusted to 7.4 with NaOH), and a concentrated KCl solution (500 mM KCl, 10 mM HEPES, pH adjusted to 7.4 with KOH). When the appropriate membrane formed, the voltage was clamped at 100 mV or −100 mV, and a stock solution of gramicidin D (Sigma-Aldrich) in DMSO or LEC10 in TFE were added up to the desired concentration. The tested concentration of gramicidin D was 1 nM and 2, 10, 100 and 200 μM were tested for LEC10. Two different temperatures were tested for each condition: 25 and 37° C. The current was recorded over 10 min for the gramicidin test and up to 1 h for the LEC10 test. The data was analyzed with Clampfit 10.7 software (Axon Instruments).
FIGS. 41 and 42 show the lipid bilayer recordings. Current through the asolectin planar lipid bilayer clamped at 100 mV was recorded in the presence of […] (FIG. 41) and 2 μM LEC10 (FIG. 42). In both cases, the solution was 150 mM KCl, 10 mM HEPES, pH 7.4. […] This lack of unitary channel formation, or even a carrier-like increase of the conductance, precludes an ionophore-like mechanism of ion transport.

Consider `CCCCCCCCCCN1CCOCCOCCN(CCCCCCCCCC)CCOCCOCC1` [LEC10, Didecyl diaza(18-crown-6)], for which, in the assay on B. subtilis membrane (2 μM compound, 60 mM KCl, NaCl or NMDG-Cl, NMDG-MeSO3 solution, 25° C), the “relative DiSC3(5) release in the presence of different cations” value is “no significant differences”. In addition, the “DiSC3(5) release” value is reported as “large DiSC3(5) release” in the assay with B. subtilis membrane (60 mM KCl added) and “same effect was also observed” with B. subtilis membrane (absence of any external cation). For the same compound, the ion channel activity entry in assay [1] (2 μM, bilayer clamped at 100 mV, 150 mM KCl, 10 mM HEPES, pH 7.4) is reported as “no ion channel activity was detected”; in assay [1] (LEC10 10, 100 and 200 μM, KCl up to 500 mM or NaCl instead of KCl), “no indication of ion channel activity”.

The values above are taken from US20230060873A1, “COMPOUNDS AND METHODS FOR FORMING ION CHANNELS IN BIOLOGICAL MEMBRANES” (Washington University, priority 2021, published 2023).
